Experimental findings from ChEMBL document CHEMBL4177739, “Design, synthesis and structure-activity relationship evaluation of novel LpxC inhibitors as Gram-negative antibacterial agents” (Bioorg Med Chem Lett, 2018) are described below.

Structures are written as SMILES. ≈ marks a conversion by molar mass, not a printed value. A value given as a limit tells only on which side of the number the result lay.

Data set [1] relates to Pseudomonas aeruginosa PA14. Nature of the data set: Inhibition of LpxC in Pseudomonas aeruginosa PA14 assessed as reduction in microbial growth incubated for 22 hrs by MTT assay. For orientation: Formazan colour is commonly taken as a measure of viable cells.
Data set [2] deals with T1, UDP-3-O-acyl-N-acetylglucosamine deacetylase (Escherichia coli K-12) (UniProt P0A725).
T1 sequence (whole entry): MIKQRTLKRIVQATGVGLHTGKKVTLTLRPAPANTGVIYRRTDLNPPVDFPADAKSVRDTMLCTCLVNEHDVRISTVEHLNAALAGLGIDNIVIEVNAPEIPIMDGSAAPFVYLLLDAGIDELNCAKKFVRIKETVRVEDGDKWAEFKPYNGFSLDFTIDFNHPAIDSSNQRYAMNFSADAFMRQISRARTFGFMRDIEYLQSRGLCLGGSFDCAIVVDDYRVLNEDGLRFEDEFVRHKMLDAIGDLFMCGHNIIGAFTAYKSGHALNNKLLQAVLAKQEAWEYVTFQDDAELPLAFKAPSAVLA
Kind of data set: Inhibition of LpxC in Escherichia coli DH5[alpha] assessed as reduction in microbial growth incubated for 22 hrs by MTT assay.

Data set [3] concerns the target T1, UDP-3-O-acyl-N-acetylglucosamine deacetylase (Escherichia coli K-12). Kind of data set: Inhibition of LpxC in Escherichia coli AB1157 assessed as reduction in microbial growth incubated for 22 hrs by MTT assay.
The nature of data set [4]: Elimination half life in mouse liver microsomes at 0.1 umol/L in presence of NADPH by LC/MS/MS method. It counts as ADME, microsome. To be noted: read-out: beta t1/2.
Data set [5] in a line: Stability in human liver microsomes assessed as drug netabolism at 0.1 umol/L after 60 mins in presence of NADPH by LC/MS/MS method. It counts as ADME, microsome. The note with it: 1 h, 0.1 µM.
Data set [6] in a line: Intrinsic clearance in human liver microsomes assessed as per gram protein at 0.1 umol/L in presence of NADPH by LC/MS/MS method. It counts as ADME, microsome. The note with it: 0.1 µM.
Data set [7] in a line: Intrinsic clearance in mouse liver microsomes assessed as per gram protein at 0.1 umol/L in presence of NADPH by LC/MS/MS method. The note with it: 0.1 µM. The format is ADME, microsome. Set-up: unit not given here. In general terms: Microsomes from liver hold many membrane-bound enzymes, among them those of drug oxidation.
Data set [8] deals with T2, UDP-3-O-acyl-N-acetylglucosamine deacetylase (Pseudomonas aeruginosa (strain ATCC 15692 / PAO1 / 1C / PRS 101 / LMG12228)) (UniProt P47205).
T2 sequence (whole entry): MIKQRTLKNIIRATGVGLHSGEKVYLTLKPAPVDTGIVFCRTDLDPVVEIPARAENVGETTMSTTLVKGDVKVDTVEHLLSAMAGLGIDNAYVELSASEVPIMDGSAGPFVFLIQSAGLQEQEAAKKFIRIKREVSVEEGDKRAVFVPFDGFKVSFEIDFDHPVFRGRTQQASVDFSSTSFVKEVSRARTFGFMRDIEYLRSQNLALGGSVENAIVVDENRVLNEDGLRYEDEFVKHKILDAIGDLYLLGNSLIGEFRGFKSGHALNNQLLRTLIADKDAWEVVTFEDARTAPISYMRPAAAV

The nature of data set [9]: Elimination half life in human liver microsomes at 0.1 umol/L in presence of NADPH by LC/MS/MS method. It counts as ADME, microsome. To be noted: read-out: beta t1/2.

As for `CC(C)(N)[C@H](NC(=O)c1ccc(C#CC#CC2CC2)c(F)c1)C(=O)NO`, the MIC in data set [1] was determined as 0.31 µg/mL; in data set [2], 0.019 µg/mL; in data set [3] it was 0.019 µg/mL; in [8], 0.31 µg/mL (≈ 0.867 µM). Besides, the half-life at 0.1 µM in data set [4] was 2.25 h. For the same compound, the Stability result in [5] is reported as “Stable”. Further, the intrinsic clearance in data set [6] amounted to 0 mL/min/g. In addition, in data set [7], the “intrinsic clearance in liver microsomes” value was 16.
Consider `Cc1cc(C#CC#CC2CC2)ccc1C(=O)N[C@H](C(=O)NO)[C@@H](C)O`, for which the MIC in data set [1] came to 5 µg/mL; in data set [2], 0.156 µg/mL; in data set [3] it was 0.156 µg/mL; in [8] it was 5 µg/mL (≈ 14.7 µM).
For the compound `C[C@@H](O)[C@H](NC(=O)c1ccc(C#CC#CC2CC2)cc1O)C(=O)NO`, the MIC in [1] is 0.625 µg/mL; in [2], 0.156 µg/mL; in data set [3], 0.078 µg/mL; in data set [8], 0.625 µg/mL (≈ 1.83 µM). For the same compound, the results for the half-life at 0.1 µM in data set [9] and in [4] were 4.55 h and 3.88 h, respectively. In data set [6], the intrinsic clearance was determined as 8 mL/min/g. Also, the “intrinsic clearance in liver microsomes” value in data set [7] is 9.
As for `CC(C)(N)[C@H](NC(=O)c1ccc(C#CC#CC2CC2)cc1F)C(=O)NO`, the MIC in [1] turned out to be 0.31 µg/mL; in [2], 0.04 µg/mL; in data set [3], 0.078 µg/mL; in data set [8] it was 0.625 µg/mL (≈ 1.75 µM). Further, in [4], the half-life at 0.1 µM is 4 h. For the same compound, the Stability entry in data set [5] is “Stable”. Also, in data set [6], the intrinsic clearance is on record as 0 mL/min/g. Besides, the “intrinsic clearance in liver microsomes” value in data set [7] was found to be 9.
For the compound `C[C@@H](O)[C@H](NC(=O)[C@H]1CN(c2ccc(-c3ccccc3)cc2)C(=O)O1)C(=O)NO`, the MIC in data set [1], in data set [2], in [3] and in data set [8] was > 256 µg/mL in each case.
Regarding `C[C@@H](O)[C@@H](CN(O)C=O)NC(=O)c1ccc(C#CC#CC2CC2)cc1`, the MIC in data set [1], in [2], in data set [3] and in data set [8] was > 256 µg/mL in each case.
For `C[C@@H](O)[C@H](NC(=O)c1ccc(C#CC#CC2CC2)cc1)C(=O)NO`, the MIC in data set [1] was 0.19 µg/mL; in data set [2] it was 0.024 µg/mL; in data set [3], 0.024 µg/mL; in data set [8], 0.19 µg/mL (≈ 0.582 µM). Besides, the half-life at 0.1 µM in data set [9] amounted to 10.6 h; in data set [4] it was 3.17 h. Further, the intrinsic clearance in [6] was found to be 3 mL/min/g. In addition, the “intrinsic clearance in liver microsomes” value in [7] worked out at 11.
In the case of `C[C@@H](O)[C@H](NC(=O)c1ccc(C#CC#CC2CC2)cc1OC(F)F)C(=O)NO`, the MIC turned out to be 10 µg/mL in data set [1], 0.31 µg/mL in [2], 0.156 µg/mL in [3] and 10 µg/mL (≈ 25.5 µM) in data set [8].
For the compound `CC(C)(N)[C@H](NC(=O)c1ccc(C#CC#CC2CC2)cc1O)C(=O)NO`, the MIC in data set [1] is 0.625 µg/mL; in data set [2], 0.078 µg/mL; in data set [3], 0.078 µg/mL; in data set [8] it was 0.625 µg/mL (≈ 1.76 µM). In data set [4], the half-life at 0.1 µM is 1.58 h. Further, the Stability entry in [5] is reported as “Stable”. Further, the intrinsic clearance in [6] amounted to 0 mL/min/g. The “intrinsic clearance in liver microsomes” value in data set [7] amounted to 22.
As for `COc1cc(C#CC#CC2CC2)ccc1C(=O)N[C@H](C(=O)NO)[C@@H](C)O`, the MIC came to 10 µg/mL in data set [1], 2.5 µg/mL in [2], 1.25 µg/mL in data set [3] and 10 µg/mL (≈ 28.1 µM) in [8].
Turning to `CC(C)(N)[C@H](NC(=O)c1ccc(C#CC#CC2CC2)cc1)C(=O)NO`, the MIC in data set [1] was 0.078 µg/mL; in data set [2], 0.012 µg/mL; in data set [3], 0.039 µg/mL; in data set [8] it was 0.156 µg/mL (≈ 0.46 µM). Besides, the half-life at 0.1 µM worked out at 56.9 h in data set [9] and 3.43 h in data set [4]. Further, in [6], the intrinsic clearance was found to be 1 mL/min/g. The “intrinsic clearance in liver microsomes” value in data set [7] is recorded as 10.
For `C[C@@H](O)[C@H](NC(=O)c1ccc(C#CC#CC2CC2)cc1[N+](=O)[O-])C(=O)NO`, the MIC in [1] was found to be 5 µg/mL; in data set [2], 0.4 µg/mL; in [3], 0.6 µg/mL; in data set [8] it was 5 µg/mL (≈ 13.5 µM).
`C[C@@H](O)[C@H](NS(=O)(=O)c1ccc(C#CC#CC2CC2)cc1)C(=O)NO`: the MIC in data set [1] is 50 µg/mL; in data set [2], 20 µg/mL; in [3], 40 µg/mL; in data set [8], 100 µg/mL (≈ 276 µM).
As for `C[C@@H](O)[C@H](NC(=O)c1ccc(C#CC#CC2CC2)cc1F)C(=O)NO`, the MIC in data set [1] was found to be 1.25 µg/mL; in [2] it was 0.31 µg/mL; in [3], 0.31 µg/mL; in data set [8], 2.5 µg/mL (≈ 7.26 µM). Further, the half-life at 0.1 µM came out at 3.33 h in data set [9] and 1.42 h in data set [4]. For the same compound, the intrinsic clearance in data set [6] was determined as 11 mL/min/g. The “intrinsic clearance in liver microsomes” value in data set [7] is on record as 25.
Turning to `C[C@@H](O)[C@H](NC(=O)[C@H]1CN(c2ccc(C#Cc3ccccc3)cc2)C(=O)O1)C(=O)NO`, the MIC in data set [1], in data set [2], in data set [3] and in data set [8] was > 256 µg/mL throughout.
With `C[C@@H](O)[C@H](NC(=O)c1ccc(C#CC#CC2CC2)cc1C#N)C(=O)NO`, the MIC in [1] was 40 µg/mL; in data set [2] it was 40 µg/mL; in data set [3], 80 µg/mL; in [8], 40 µg/mL (≈ 114 µM).
On to `C[C@@H](O)[C@H](NC(=O)c1ccc(C#CC#CC2CC2)c(F)c1)C(=O)NO`, for which the MIC was 0.63 µg/mL in data set [1], 0.31 µg/mL in data set [2], 0.4 µg/mL in [3] and 0.63 µg/mL (≈ 1.83 µM) in data set [8]. Moreover, the results for the half-life at 0.1 µM in data set [9] and in data set [4] were 44.4 h and 2.38 h, respectively. Besides, the intrinsic clearance in [6] is reported as 1 mL/min/g. The “intrinsic clearance in liver microsomes” value in data set [7] is given as 15.
Take `C[C@@H](O)[C@H](NC(=O)[C@@H]1CN(c2ccc(C#Cc3ccccc3)cc2)C(=O)O1)C(=O)NO`: the MIC in [1], in data set [2], in data set [3] and in data set [8] was > 256 µg/mL each time.
With `C[C@@H](O)[C@H](NC(=O)c1ccc(C#CC#CC2CC2)cn1)C(=O)NO`, the MIC is 10 µg/mL in data set [1], 0.625 µg/mL in data set [2], 1.25 µg/mL in data set [3] and 20 µg/mL (≈ 61.1 µM) in data set [8].
For `C[C@@H](O)[C@H](NC(=O)c1ccc(C#CC#CC2CC2)cc1N)C(=O)NO` the same measures were 0.625 µg/mL, 0.04 µg/mL, 0.04 µg/mL and 0.625 µg/mL (≈ 1.83 µM).
`C[C@@H](O)[C@H](NC(=O)c1ccc(C#Cc2ccc(CN3CCOCC3)cc2)cc1)C(=O)NO`: the MIC in data set [2] and in [3] was 0.156 µg/mL throughout.
For the compound `CC(CCc1ccc(-c2ccccc2)cc1)(C(=O)NO)S(C)(=O)=O` (racemic), the MIC in data set [1] was 0.31 µg/mL; in [2], 0.4 µg/mL; in [3] it was 1 µg/mL; in data set [8], 0.31 µg/mL (≈ 0.892 µM).
Take `C[C@@H](O)[C@H](NC(=O)c1ccc(C#CC#CC2CC2)cc1Cl)C(=O)NO`: the MIC in [1] worked out at 6.25 µg/mL; in data set [2] it was 0.048 µg/mL; in [3], 0.192 µg/mL; in [8], 6.25 µg/mL (≈ 17.3 µM).
Turning to `C[C@@H](O)[C@H](NC(=O)[C@@H]1CN(c2ccc(-c3ccccc3)cc2)C(=O)O1)C(=O)NO`, the MIC in data set [1], in [2], in data set [3] and in data set [8] was > 256 µg/mL throughout.
Take `CC(CCc1ccc(-c2ccccc2)cc1)(C(=O)Nc1ccccc1N)S(C)(=O)=O` (stereo not given): the MIC in data set [1], in [2], in [3] and in [8] was > 256 µg/mL throughout.
